# Assay results: US20230023092A1, “TREATMENT OF DEPRESSION AND OTHER VARIOUS DISORDERS WITH PSILOCYBIN” (COMPASS […], priority 2019, published 2023)
# Test system: healthy subjects
# Assay: Phase 1 study: adverse events (TEAEs, MedDRA coded)
# Assay type: in vivo, human
# Procedure: A Phase 1 randomized, double-blind, placebo-controlled study to evaluate the effect of psilocybin on cognitive and emotional processing as compared to placebo in healthy volunteers was conducted. The study investigated the short-term (Day 7) and long-term (Day 28) effects of moderate (10 mg) and high doses (25 mg) of psilocybin on key domains of cognition, such as episodic memory, attention, working and spatial memory, social cognition and elements of executive function, including cognitive flexibility.
# Each subject was assigned 1 treatment bottle containing 5 capsules packaged in a double-blind fashion, depending on the randomized treatment arm, the bottle contained one of the following: • a. Psilocybin 10 mg: 2×5-mg oral psilocybin capsules plus 3×placebo capsules • b. Psilocybin 25 mg: 5×5-mg oral psilocybin capsules • c. Placebo: 5×placebo capsules
# Each 5-mg oral psilocybin capsules comprised 5 mg crystalline psilocybin in the form or Polymorph A, 12.5 mg of SMCC 50, 79.5 mg of SMCC 90, 1 mg sodium starch glycolate, 1 mg colloidal silicon dioxide, and 1 mg sodium stearyl fumarate
# Adverse events: Throughout the course of the study, all AEs were monitored and recorded. Each AE was classified according to the following criteria: • i. […] Moderate: The AE produces some impairment of functioning, but is not hazardous to the subject's health. • iii. Severe: The AE produces significant impairment of functioning or incapacitation and is a definite hazard to the subject's health.
# Visit 3 (V3): Drug Administration (Day 0): The subject was asked to eat a light breakfast at least two hours prior to coming to the clinic for study drug administration. On Day 0 (V3), the subject underwent the SSTS, had vital signs obtained, medications reviewed, AEs recorded and eligibility reviewed prior to being randomized to study drug. The study drug was administered to up to six subjects simultaneously in individual beds separated by a curtain. The subject was invited to put on eyeshades and headphones, lie down and listen to calming music for the rest of the session (six hours). The subject was supported 1:1 with a chaperone and supervised by the study psychiatrist and lead therapist.
# During administration of psilocybin, each subject received one-on-one support from a trained assisting therapist and each dosing session was supervised by a study psychiatrist and a lead therapist. The study drug was administered simultaneously to up to six participants as a single 5-capsule oral dose (10 mg psilocybin: 2×5-mg psilocybin capsules plus 3×placebo capsules; 25 mg psilocybin: 5×5-mg psilocybin capsules; placebo: 5×placebo capsules). Twenty-five dosing sessions were completed, with up to six participants dosed simultaneously per session. Each session lasted approximately 6 to 8 hours with subjects encouraged to relax and engage in introspection for the duration. After the acute effects of the study drug had subsided, subjects were discharged.
smiles,measurement,setting,value
"CN(C)CCc1c[nH]c2cccc(OP(=O)(O)O)c12 [Psilocybin, psilocybin]",Serious adverse events or adverse events that led to withdrawal,"10 mg and 25 mg oral, 12-week study",no serious adverse events or adverse events that led to withdrawal
same,"AEs deemed potentially related to study treatment, % of AEs of the arm",10 mg oral,92.6%
same,"Affect lability, Events",10 mg oral,5
same,"Affect lability, N (%)",10 mg oral,5 (16.7)
same,"Affect lability, worst severity Mild, Events",10 mg oral,3
same,"Affect lability, worst severity Mild, N (%)",10 mg oral,3 (10.0)
same,"Affect lability, worst severity Moderate, Events",10 mg oral,2
same,"Affect lability, worst severity Moderate, N (%)",10 mg oral,2 (6.7)
same,"Affect lability, worst severity Severe, Events",10 mg oral,0
same,"Affect lability, worst severity Severe, N (%)",10 mg oral,0
same,"Any Selected TEAE, Events",10 mg oral,106
same,"Any Selected TEAE, N (%)",10 mg oral,27 (90.0)
same,"Any TEAE leading to death, Events",10 mg oral,0
same,"Any TEAE leading to death, N (%)",10 mg oral,0
same,"Any TEAE leading to study discontinuation, Events",10 mg oral,0
same,"Any TEAE leading to study discontinuation, N (%)",10 mg oral,0
same,"Any TEAE related to study treatment, Events",10 mg oral,188
same,"Any TEAE related to study treatment, N (%)",10 mg oral,29 (96.7)
same,"Any TEAE, Events",10 mg oral,203
same,"Any TEAE, N (%)",10 mg oral,29 (96.7)
same,"Any TEAE, worst severity Mild, Events",10 mg oral,12
same,"Any TEAE, worst severity Mild, N (%)",10 mg oral,6 (20.0)
same,"Any TEAE, worst severity Moderate, Events",10 mg oral,38
same,"Any TEAE, worst severity Moderate, N (%)",10 mg oral,13 (43.3)
same,"Any TEAE, worst severity Severe, Events",10 mg oral,22
same,"Any TEAE, worst severity Severe, N (%)",10 mg oral,10 (33.3)
same,"Any serious TEAE related to study treatment, Events",10 mg oral,0
same,"Any serious TEAE related to study treatment, N (%)",10 mg oral,0
same,"Any serious TEAE, Events",10 mg oral,0
same,"Any serious TEAE, N (%)",10 mg oral,0
same,"Any severe TEAE, Events",10 mg oral,22
same,"Any severe TEAE, N (%)",10 mg oral,10 (33.3)
same,"Change in sustained attention, Events",10 mg oral,2
same,"Change in sustained attention, N (%)",10 mg oral,2 (6.7)
same,"Depressed mood, Events",10 mg oral,1
same,"Depressed mood, N (%)",10 mg oral,1 (3.3)
same,"Dissociative identity disorder, Events",10 mg oral,2
same,"Dissociative identity disorder, N (%)",10 mg oral,1 (3.3)
same,"Emotional disorder, Events",10 mg oral,2
same,"Emotional disorder, N (%)",10 mg oral,2 (6.7)
same,"Emotional disorder, worst severity Mild, Events",10 mg oral,1
same,"Emotional disorder, worst severity Mild, N (%)",10 mg oral,1 (3.3)
same,"Emotional disorder, worst severity Moderate, Events",10 mg oral,1
same,"Emotional disorder, worst severity Moderate, N (%)",10 mg oral,1 (3.3)
same,"Emotional disorder, worst severity Severe, Events",10 mg oral,0
same,"Emotional disorder, worst severity Severe, N (%)",10 mg oral,0
same,"Euphoric mood, Events",10 mg oral,7
same,"Euphoric mood, N (%)",10 mg oral,7 (23.3)
same,"Euphoric mood, worst severity Mild, Events",10 mg oral,0
same,"Euphoric mood, worst severity Mild, N (%)",10 mg oral,0
same,"Euphoric mood, worst severity Moderate, Events",10 mg oral,6
same,"Euphoric mood, worst severity Moderate, N (%)",10 mg oral,6 (20.0)
same,"Euphoric mood, worst severity Severe, Events",10 mg oral,1
same,"Euphoric mood, worst severity Severe, N (%)",10 mg oral,1 (3.3)
same,"Fatigue, Events",10 mg oral,10
same,"Fatigue, N (%)",10 mg oral,9 (30.0)
same,"Fatigue, worst severity Mild, Events",10 mg oral,6
same,"Fatigue, worst severity Mild, N (%)",10 mg oral,6 (20.0)
same,"Fatigue, worst severity Moderate, Events",10 mg oral,3
same,"Fatigue, worst severity Moderate, N (%)",10 mg oral,2 (6.7)
same,"Fatigue, worst severity Severe, Events",10 mg oral,1
same,"Fatigue, worst severity Severe, N (%)",10 mg oral,1 (3.3)
same,"Feeling abnormal, Events",10 mg oral,4
same,"Feeling abnormal, N (%)",10 mg oral,4 (13.3)
same,"Feeling abnormal, worst severity Mild, Events",10 mg oral,3
same,"Feeling abnormal, worst severity Mild, N (%)",10 mg oral,3 (10.0)
same,"Feeling abnormal, worst severity Moderate, Events",10 mg oral,1
same,"Feeling abnormal, worst severity Moderate, N (%)",10 mg oral,1 (3.3)
same,"Feeling abnormal, worst severity Severe, Events",10 mg oral,0
same,"Feeling abnormal, worst severity Severe, N (%)",10 mg oral,0
same,"Feeling of relaxation, Events",10 mg oral,5
same,"Feeling of relaxation, N (%)",10 mg oral,3 (10.0)
same,"Gastrointestinal disorders, Events",10 mg oral,4
same,"Gastrointestinal disorders, N (%)",10 mg oral,4 (13.3)
same,"Gastrointestinal disorders, worst severity Mild, Events",10 mg oral,3
same,"Gastrointestinal disorders, worst severity Mild, N (%)",10 mg oral,3 (10.0)
same,"Gastrointestinal disorders, worst severity Moderate, Events",10 mg oral,1
same,"Gastrointestinal disorders, worst severity Moderate, N (%)",10 mg oral,1 (3.3)
same,"Gastrointestinal disorders, worst severity Severe, Events",10 mg oral,0
same,"Gastrointestinal disorders, worst severity Severe, N (%)",10 mg oral,0
same,"General disorders and administration site conditions, Events",10 mg oral,27
same,"General disorders and administration site conditions, N (%)",10 mg oral,17 (56.7)
same,"General disorders and administration site conditions, worst severity Mild, Events",10 mg oral,17
same,"General disorders and administration site conditions, worst severity Mild, N (%)",10 mg oral,13 (43.3)
same,"General disorders and administration site conditions, worst severity Moderate, Events",10 mg oral,6
same,"General disorders and administration site conditions, worst severity Moderate, N (%)",10 mg oral,3 (10.0)
same,"General disorders and administration site conditions, worst severity Severe, Events",10 mg oral,1
same,"General disorders and administration site conditions, worst severity Severe, N (%)",10 mg oral,1 (3.3)
same,"Hallucination, Events",10 mg oral,3
same,"Hallucination, N (%)",10 mg oral,3 (10.0)
same,"Hallucination, auditory, Events",10 mg oral,4
same,"Hallucination, auditory, N (%)",10 mg oral,4 (13.3)
same,"Hallucination, auditory, worst severity Mild, Events",10 mg oral,1
same,"Hallucination, auditory, worst severity Mild, N (%)",10 mg oral,1 (3.3)
same,"Hallucination, auditory, worst severity Moderate, Events",10 mg oral,1
same,"Hallucination, auditory, worst severity Moderate, N (%)",10 mg oral,1 (3.3)
same,"Hallucination, auditory, worst severity Severe, Events",10 mg oral,2
same,"Hallucination, auditory, worst severity Severe, N (%)",10 mg oral,2 (6.7)
same,"Hallucination, gustatory, Events",10 mg oral,1
same,"Hallucination, gustatory, N (%)",10 mg oral,1 (3.3)
same,"Hallucination, olfactory, Events",10 mg oral,1
same,"Hallucination, olfactory, N (%)",10 mg oral,1 (3.3)
same,"Hallucination, tactile, Events",10 mg oral,2
same,"Hallucination, tactile, N (%)",10 mg oral,2 (6.7)
same,"Hallucination, visual, Events",10 mg oral,20
same,"Hallucination, visual, N (%)",10 mg oral,18 (60.0)
same,"Hallucination, visual, worst severity Mild, Events",10 mg oral,3
same,"Hallucination, visual, worst severity Mild, N (%)",10 mg oral,3 (10.0)
same,"Hallucination, visual, worst severity Moderate, Events",10 mg oral,8
same,"Hallucination, visual, worst severity Moderate, N (%)",10 mg oral,8 (26.7)
same,"Hallucination, visual, worst severity Severe, Events",10 mg oral,7
same,"Hallucination, visual, worst severity Severe, N (%)",10 mg oral,7 (23.3)
same,"Hallucination, worst severity Mild, Events",10 mg oral,0
same,"Hallucination, worst severity Mild, N (%)",10 mg oral,0
same,"Hallucination, worst severity Moderate, Events",10 mg oral,3
same,"Hallucination, worst severity Moderate, N (%)",10 mg oral,3 (10.0)
same,"Hallucination, worst severity Severe, Events",10 mg oral,0
same,"Hallucination, worst severity Severe, N (%)",10 mg oral,0
same,"Headache, Events",10 mg oral,12
same,"Headache, N (%)",10 mg oral,9 (30.0)
same,"Headache, worst severity Mild, Events",10 mg oral,12
same,"Headache, worst severity Mild, N (%)",10 mg oral,9 (30.0)
same,"Headache, worst severity Moderate, Events",10 mg oral,0
same,"Headache, worst severity Moderate, N (%)",10 mg oral,0
same,"Headache, worst severity Severe, Events",10 mg oral,0
same,"Headache, worst severity Severe, N (%)",10 mg oral,0
same,"Hypoaesthesia, Events",10 mg oral,2
same,"Hypoaesthesia, N (%)",10 mg oral,2 (6.7)
same,"Hypoaesthesia, worst severity Mild, Events",10 mg oral,2
same,"Hypoaesthesia, worst severity Mild, N (%)",10 mg oral,2 (6.7)
same,"Hypoaesthesia, worst severity Moderate, Events",10 mg oral,0
